{"source": "patent US11203601B2", "about": "“Tricyclic compounds as glycogen synthase kinase 3 (GSK3) inhibitors and uses thereof” (The Broad Institute, Inc., priority 2017, dated 2021)", "test_in_all_cases": "Carna kinome panel", "assay_type_in_all_cases": "biochemical", "key": {"CK1ε": {"target": "CK1ε (Homo sapiens (Human), UniProt P49674)", "conditions": "read-out: % Inhibition at 10 μM of the test compound"}, "EGFR": {"target": "EGFR (Homo sapiens (Human), UniProt P00533)", "conditions": "read-out: % Inhibition at 10 μM of the test compound"}, "KIT(V560G)": {"target": "KIT(V560G) (Homo sapiens (Human), UniProt P10721, V560G)", "conditions": "read-out: % Inhibition at 10 μM of the test compound"}, "FLT1": {"target": "FLT1 (Homo sapiens (Human), UniProt P17948)", "conditions": "read-out: % Inhibition at 10 μM of the test compound"}, "MAP3K5_Cascade": {"target": "MAP3K5_Cascade (Homo sapiens (Human), UniProt Q99683)", "conditions": "read-out: % Inhibition at 10 μM of the test compound"}, "NEK4": {"target": "NEK4 (Homo sapiens (Human), UniProt P51957)", "conditions": "read-out: % Inhibition at 10 μM of the test compound"}, "PKACβ": {"target": "PKACβ (Homo sapiens (Human), UniProt P22694)", "conditions": "read-out: % Inhibition at 10 μM of the test compound"}, "SIK": {"target": "SIK (Homo sapiens (Human), UniProt P57059)", "conditions": "read-out: % Inhibition at 10 μM of the test compound"}, "RSK3": {"target": "RSK3 (Homo sapiens (Human), UniProt Q15349)", "conditions": "read-out: % Inhibition at 10 μM of the test compound"}, "Erk2": {"target": "Erk2 (Homo sapiens (Human), UniProt P28482)", "conditions": "read-out: % Inhibition at 10 μM of the test compound"}, "FGFR3": {"target": "FGFR3 (Homo sapiens (Human), UniProt P22607)", "conditions": "read-out: % Inhibition at 10 μM of the test compound"}, "ROCK1": {"target": "ROCK1 (Homo sapiens (Human), UniProt Q13464)", "sequence (Q13464 whole entry)": "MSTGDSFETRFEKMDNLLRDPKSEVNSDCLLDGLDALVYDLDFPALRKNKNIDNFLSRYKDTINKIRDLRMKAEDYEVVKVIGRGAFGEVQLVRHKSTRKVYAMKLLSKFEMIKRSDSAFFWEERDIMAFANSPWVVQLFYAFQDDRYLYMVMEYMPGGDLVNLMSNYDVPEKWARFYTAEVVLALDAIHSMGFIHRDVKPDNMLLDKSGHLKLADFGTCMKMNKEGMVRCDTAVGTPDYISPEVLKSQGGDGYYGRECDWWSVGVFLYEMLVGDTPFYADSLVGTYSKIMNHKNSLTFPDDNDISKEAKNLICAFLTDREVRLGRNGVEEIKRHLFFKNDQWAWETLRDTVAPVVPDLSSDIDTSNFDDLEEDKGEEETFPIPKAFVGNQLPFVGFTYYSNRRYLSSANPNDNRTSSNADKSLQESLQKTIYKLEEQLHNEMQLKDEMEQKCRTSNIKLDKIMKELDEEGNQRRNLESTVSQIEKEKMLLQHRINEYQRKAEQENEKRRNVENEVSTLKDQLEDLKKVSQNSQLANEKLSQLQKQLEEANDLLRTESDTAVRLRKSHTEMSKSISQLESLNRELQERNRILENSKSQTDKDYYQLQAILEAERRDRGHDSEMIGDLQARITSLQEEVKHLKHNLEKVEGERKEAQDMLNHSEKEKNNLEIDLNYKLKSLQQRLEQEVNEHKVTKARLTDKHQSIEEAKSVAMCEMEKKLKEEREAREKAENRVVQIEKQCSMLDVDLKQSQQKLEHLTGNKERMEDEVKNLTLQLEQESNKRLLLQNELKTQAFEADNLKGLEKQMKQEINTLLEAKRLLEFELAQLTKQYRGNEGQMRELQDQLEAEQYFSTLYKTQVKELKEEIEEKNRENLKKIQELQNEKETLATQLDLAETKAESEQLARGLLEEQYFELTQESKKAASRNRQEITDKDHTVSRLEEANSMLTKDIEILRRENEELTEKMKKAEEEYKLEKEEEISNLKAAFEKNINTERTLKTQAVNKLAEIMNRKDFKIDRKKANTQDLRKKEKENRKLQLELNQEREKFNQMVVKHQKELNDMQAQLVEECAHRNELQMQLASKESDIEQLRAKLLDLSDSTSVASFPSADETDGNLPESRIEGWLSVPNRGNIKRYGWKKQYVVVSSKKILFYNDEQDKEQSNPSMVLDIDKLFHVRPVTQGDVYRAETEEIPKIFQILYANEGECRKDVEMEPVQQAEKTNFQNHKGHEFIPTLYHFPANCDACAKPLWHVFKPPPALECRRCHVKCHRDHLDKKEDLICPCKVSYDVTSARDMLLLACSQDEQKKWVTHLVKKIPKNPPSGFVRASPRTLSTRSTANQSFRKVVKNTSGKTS", "conditions": "read-out: % Inhibition at 10 μM of the test compound"}, "KIT(D816Y)": {"target": "KIT(D816Y) (Homo sapiens (Human), UniProt P10721, D816Y)", "conditions": "read-out: % Inhibition at 10 μM of the test compound"}, "PKCθ": {"target": "PKCθ (Homo sapiens (Human), UniProt Q04759)", "conditions": "read-out: % Inhibition at 10 μM of the test compound"}, "PLK3": {"target": "PLK3 (Homo sapiens (Human), UniProt Q9H4B4)", "conditions": "read-out: % Inhibition at 10 μM of the test compound"}, "ALK(G1202R)": {"target": "ALK(G1202R) (Homo sapiens (Human), UniProt Q9UM73, G1202R)", "conditions": "read-out: % Inhibition at 10 μM of the test compound"}, "MARK3": {"target": "MARK3 (Homo sapiens (Human), UniProt P27448)", "conditions": "read-out: % Inhibition at 10 μM of the test compound"}, "MAPKAPK3": {"target": "MAPKAPK3 (Homo sapiens (Human), UniProt Q16644)", "conditions": "read-out: % Inhibition at 10 μM of the test compound"}, "CGK2": {"target": "CGK2 (Homo sapiens (Human), UniProt Q13237)", "conditions": "read-out: % Inhibition at 10 μM of the test compound"}, "FGFR2": {"target": "FGFR2 (Homo sapiens (Human), UniProt P21802)", "conditions": "read-out: % Inhibition at 10 μM of the test compound"}, "AKT1": {"target": "AKT1 (Homo sapiens (Human), UniProt P31749)", "conditions": "read-out: % Inhibition at 10 μM of the test compound"}, "CDK4/CycD3": {"target": "CDK4/CycD3 (Homo sapiens (Human), UniProt P11802)", "conditions": "read-out: % Inhibition at 10 μM of the test compound"}, "EPHB3": {"target": "EPHB3 (Homo sapiens (Human), UniProt P54753)", "conditions": "read-out: % Inhibition at 10 μM of the test compound"}, "RSK2": {"target": "RSK2 (Homo sapiens (Human), UniProt P51812)", "conditions": "read-out: % Inhibition at 10 μM of the test compound"}, "NDR2": {"target": "NDR2 (Homo sapiens (Human), UniProt Q9Y2H1)", "conditions": "read-out: % Inhibition at 10 μM of the test compound"}, "SRPK2": {"target": "SRPK2 (Homo sapiens (Human), UniProt P78362)", "conditions": "read-out: % Inhibition at 10 μM of the test compound"}, "FYN(isoform a)": {"target": "FYN(isoform a) (Homo sapiens (Human), UniProt P06241)", "conditions": "read-out: % Inhibition at 10 μM of the test compound"}, "MNK1": {"target": "MNK1 (Homo sapiens (Human), UniProt Q9BUB5)", "conditions": "read-out: % Inhibition at 10 μM of the test compound"}, "MAP3K3_Cascade": {"target": "MAP3K3_Cascade (Homo sapiens (Human), UniProt Q99759)", "sequence (Q99759 whole entry)": "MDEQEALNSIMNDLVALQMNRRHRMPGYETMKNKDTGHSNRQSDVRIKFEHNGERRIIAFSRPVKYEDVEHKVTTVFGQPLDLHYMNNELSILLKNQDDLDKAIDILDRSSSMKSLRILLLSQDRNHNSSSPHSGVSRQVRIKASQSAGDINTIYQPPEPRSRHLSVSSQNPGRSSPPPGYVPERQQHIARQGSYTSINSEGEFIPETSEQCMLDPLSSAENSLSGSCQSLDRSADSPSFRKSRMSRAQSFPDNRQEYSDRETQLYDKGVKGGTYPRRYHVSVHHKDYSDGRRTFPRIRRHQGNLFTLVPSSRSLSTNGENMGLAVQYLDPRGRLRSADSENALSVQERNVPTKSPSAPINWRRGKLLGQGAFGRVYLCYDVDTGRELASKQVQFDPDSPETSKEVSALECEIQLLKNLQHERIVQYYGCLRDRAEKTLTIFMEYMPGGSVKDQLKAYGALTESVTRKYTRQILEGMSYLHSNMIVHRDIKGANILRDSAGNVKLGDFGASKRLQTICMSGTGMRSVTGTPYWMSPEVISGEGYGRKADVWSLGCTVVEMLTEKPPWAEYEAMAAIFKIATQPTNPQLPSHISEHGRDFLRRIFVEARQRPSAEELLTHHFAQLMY", "conditions": "read-out: % Inhibition at 10 μM of the test compound"}, "SYK": {"target": "SYK (Homo sapiens (Human), UniProt P43405)", "conditions": "read-out: % Inhibition at 10 μM of the test compound"}, "HIPK1": {"target": "HIPK1 (Homo sapiens (Human), UniProt Q86Z02)", "conditions": "read-out: % Inhibition at 10 μM of the test compound"}, "EPHA7": {"target": "EPHA7 (Homo sapiens (Human), UniProt Q15375)", "conditions": "read-out: % Inhibition at 10 μM of the test compound"}, "p70S6Kβ": {"target": "p70S6Kβ (Homo sapiens (Human), UniProt Q9UBS0)", "conditions": "read-out: % Inhibition at 10 μM of the test compound"}, "EPHB1": {"target": "EPHB1 (Homo sapiens (Human), UniProt P54762)", "conditions": "read-out: % Inhibition at 10 μM of the test compound"}, "PDGFRβ": {"target": "PDGFRβ (Homo sapiens (Human), UniProt P09619)", "conditions": "read-out: % Inhibition at 10 μM of the test compound"}, "p38γ": {"target": "p38γ (Homo sapiens (Human), UniProt P53778)", "conditions": "read-out: % Inhibition at 10 μM of the test compound"}, "EEF2K": {"target": "EEF2K (Homo sapiens (Human), UniProt O00418)", "sequence (O00418 whole entry, species assumed)": "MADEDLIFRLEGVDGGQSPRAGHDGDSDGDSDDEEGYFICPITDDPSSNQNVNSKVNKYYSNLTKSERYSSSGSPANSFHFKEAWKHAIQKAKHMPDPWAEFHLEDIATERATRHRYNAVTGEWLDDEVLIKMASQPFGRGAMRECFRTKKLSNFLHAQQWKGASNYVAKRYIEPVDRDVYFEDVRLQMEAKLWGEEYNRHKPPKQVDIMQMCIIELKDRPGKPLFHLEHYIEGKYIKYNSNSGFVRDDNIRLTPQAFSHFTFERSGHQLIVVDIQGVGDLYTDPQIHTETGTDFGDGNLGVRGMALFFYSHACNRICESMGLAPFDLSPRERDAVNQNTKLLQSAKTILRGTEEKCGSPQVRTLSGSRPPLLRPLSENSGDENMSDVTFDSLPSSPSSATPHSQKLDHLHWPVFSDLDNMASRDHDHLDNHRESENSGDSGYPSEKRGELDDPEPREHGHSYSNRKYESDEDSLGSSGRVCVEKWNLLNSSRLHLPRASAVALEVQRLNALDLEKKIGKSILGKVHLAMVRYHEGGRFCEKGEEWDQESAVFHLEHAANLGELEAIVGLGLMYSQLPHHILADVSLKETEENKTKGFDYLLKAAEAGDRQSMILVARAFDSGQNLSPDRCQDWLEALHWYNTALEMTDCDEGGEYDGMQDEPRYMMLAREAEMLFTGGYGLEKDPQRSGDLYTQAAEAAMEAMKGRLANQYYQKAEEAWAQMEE", "conditions": "read-out: % Inhibition at 10 μM of the test compound"}, "COT_Cascade": {"tested_on": "COT_Cascade", "procedure": "Briefly, a selection of compounds was screened against a panel of kinases at a single concentration of 10 μM. […] This was completed using one of two assays, depending on the kinase being examined: 1) IMAP Assay. A solution of 4× inhibitor, 4× substrate/ATP/metal solution and 2× kinase solution was prepared with assay buffer (20 mM HEPES, 0.01% Tween-20, 2 mM DTT, pH 7.4) and mixed, then incubated in 384-well black plates for 1 hour at room temperature. The IMAP binding reagent (IMAP Screening Express kit; Molecular Devices) was added to each well and incubated for 30 minutes. […] 2) Off-Chip Mobility Shift Assay (MSA). A solution of 4× inhibitor, 4× substrate/ATP/metal solution and 2× kinase solution was prepared with assay buffer (20 mM HEPES, 0.01% Triton X-100, 2 mM DTT, pH 7.5) and mixed, then incubated in 384-well plates for 1 or 5 hours depending on the kinase, at room temperature. Termination buffer (QuickScout Screening assist MSA; Carna Biosciences) was added to each well. The entire reaction mixture was then applied to a LabChip3000 system (Caliper Life Science), and the product and substrate peptide peaks were separated and quantified. […] The entire reaction mixture was then applied to a LabChip3000 system (Caliper Life Science), and the product and substrate peptide peaks were separated and quantified."}, "PDGFRα(D842V)": {"target": "PDGFRα(D842V) (Homo sapiens (Human), UniProt P16234, D842V)", "conditions": "read-out: % Inhibition at 10 μM of the test compound"}, "CK1γ2": {"target": "CK1γ2 (Homo sapiens (Human), UniProt P78368)", "conditions": "read-out: % Inhibition at 10 μM of the test compound"}, "ROS": {"target": "ROS (Homo sapiens (Human), UniProt P08922)", "sequence (P08922 28-2347)": "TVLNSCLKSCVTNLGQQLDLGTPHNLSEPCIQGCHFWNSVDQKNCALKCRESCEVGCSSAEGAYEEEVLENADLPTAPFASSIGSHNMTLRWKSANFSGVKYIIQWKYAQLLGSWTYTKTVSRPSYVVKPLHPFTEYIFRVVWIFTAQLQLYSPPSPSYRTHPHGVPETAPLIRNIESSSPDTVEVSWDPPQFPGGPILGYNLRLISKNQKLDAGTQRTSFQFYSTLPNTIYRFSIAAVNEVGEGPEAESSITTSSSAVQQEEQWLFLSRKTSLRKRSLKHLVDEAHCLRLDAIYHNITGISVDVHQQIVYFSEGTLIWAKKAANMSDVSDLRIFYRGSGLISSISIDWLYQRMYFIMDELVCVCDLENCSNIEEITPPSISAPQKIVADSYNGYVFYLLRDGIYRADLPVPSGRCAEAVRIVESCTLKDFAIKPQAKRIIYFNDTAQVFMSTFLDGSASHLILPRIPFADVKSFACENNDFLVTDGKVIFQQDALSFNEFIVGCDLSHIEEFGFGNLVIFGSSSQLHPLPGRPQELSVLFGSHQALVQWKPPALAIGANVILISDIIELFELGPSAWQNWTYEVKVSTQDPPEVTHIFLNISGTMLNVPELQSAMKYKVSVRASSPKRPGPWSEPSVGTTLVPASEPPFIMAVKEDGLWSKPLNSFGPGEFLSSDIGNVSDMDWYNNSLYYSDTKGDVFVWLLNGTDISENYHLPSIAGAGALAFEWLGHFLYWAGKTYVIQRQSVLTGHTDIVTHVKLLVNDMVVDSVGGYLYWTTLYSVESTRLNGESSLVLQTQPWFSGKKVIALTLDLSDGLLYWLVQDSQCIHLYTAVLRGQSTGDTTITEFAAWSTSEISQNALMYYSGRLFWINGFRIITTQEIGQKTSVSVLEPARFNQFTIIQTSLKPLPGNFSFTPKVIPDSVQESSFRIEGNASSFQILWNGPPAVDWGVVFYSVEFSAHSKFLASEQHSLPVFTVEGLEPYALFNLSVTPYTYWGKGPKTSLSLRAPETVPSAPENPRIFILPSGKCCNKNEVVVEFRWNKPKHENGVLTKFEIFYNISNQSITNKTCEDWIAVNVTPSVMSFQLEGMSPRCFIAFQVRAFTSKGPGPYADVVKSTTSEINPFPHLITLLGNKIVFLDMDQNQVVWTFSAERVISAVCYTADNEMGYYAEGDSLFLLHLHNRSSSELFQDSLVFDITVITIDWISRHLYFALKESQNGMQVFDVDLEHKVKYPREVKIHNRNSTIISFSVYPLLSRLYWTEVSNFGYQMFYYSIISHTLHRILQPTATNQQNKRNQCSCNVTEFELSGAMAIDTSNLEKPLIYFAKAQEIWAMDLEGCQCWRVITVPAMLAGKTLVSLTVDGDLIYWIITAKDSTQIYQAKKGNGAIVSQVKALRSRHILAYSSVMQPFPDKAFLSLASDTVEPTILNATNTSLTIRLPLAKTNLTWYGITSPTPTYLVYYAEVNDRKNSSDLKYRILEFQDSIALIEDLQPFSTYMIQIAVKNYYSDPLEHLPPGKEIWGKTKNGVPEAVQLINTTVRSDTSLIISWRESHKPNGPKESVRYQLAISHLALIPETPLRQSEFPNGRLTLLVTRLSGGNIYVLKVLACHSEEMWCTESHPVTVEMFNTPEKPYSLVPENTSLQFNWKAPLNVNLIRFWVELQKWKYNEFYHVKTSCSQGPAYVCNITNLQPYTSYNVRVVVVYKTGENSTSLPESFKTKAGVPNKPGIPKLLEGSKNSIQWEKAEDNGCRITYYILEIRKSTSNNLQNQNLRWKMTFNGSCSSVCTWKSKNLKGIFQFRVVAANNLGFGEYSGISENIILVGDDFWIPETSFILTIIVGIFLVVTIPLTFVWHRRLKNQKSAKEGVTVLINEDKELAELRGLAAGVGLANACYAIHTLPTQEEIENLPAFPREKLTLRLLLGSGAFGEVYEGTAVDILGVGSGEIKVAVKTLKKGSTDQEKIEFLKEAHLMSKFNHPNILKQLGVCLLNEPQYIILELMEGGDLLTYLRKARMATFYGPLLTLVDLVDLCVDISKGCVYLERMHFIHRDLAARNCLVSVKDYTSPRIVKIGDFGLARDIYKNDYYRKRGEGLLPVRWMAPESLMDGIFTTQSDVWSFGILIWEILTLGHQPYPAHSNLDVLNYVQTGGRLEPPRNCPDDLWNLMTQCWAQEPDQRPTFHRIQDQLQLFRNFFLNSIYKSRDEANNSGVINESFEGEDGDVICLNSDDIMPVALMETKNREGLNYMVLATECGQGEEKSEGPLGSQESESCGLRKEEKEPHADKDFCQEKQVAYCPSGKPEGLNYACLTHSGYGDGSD", "conditions": "read-out: % Inhibition at 10 μM of the test compound"}}, "data": [{"compound": "CCC1(c2ccccc2)C2=C(CC(C)(C)CC2=O)Nc2ncsc21", "note": "(centres unmarked) [Compound 1, 9-Ethyl-6,6-dimethyl-9-phenyl-5,6,7,9-tetrahydrothiazolo[4,5-b]quinolin-8(4H)-one]", "values": [{"measurement": "inhibition at 10 µM", "setting": "CK1ε", "value": 3.1, "unit": "%"}, {"measurement": "inhibition at 10 µM", "setting": "EGFR", "value": 21.2, "unit": "%"}, {"measurement": "inhibition at 10 µM", "setting": "KIT(V560G)", "value": -5.8, "unit": "%"}, {"measurement": "inhibition at 10 µM", "setting": "FLT1", "value": 6.2, "unit": "%"}, {"measurement": "inhibition at 10 µM", "setting": "MAP3K5_Cascade", "value": 5.4, "unit": "%"}, {"measurement": "inhibition at 10 µM", "setting": "NEK4", "value": -2.5, "unit": "%"}, {"measurement": "inhibition at 10 µM", "setting": "PKACβ", "value": -0.8, "unit": "%"}, {"measurement": "inhibition at 10 µM", "setting": "SIK", "value": 5.6, "unit": "%"}, {"measurement": "inhibition at 10 µM", "setting": "RSK3", "value": -4.9, "unit": "%"}, {"measurement": "inhibition at 10 µM", "setting": "Erk2", "value": 0.5, "unit": "%"}, {"measurement": "inhibition at 10 µM", "setting": "FGFR3", "value": 1.6, "unit": "%"}, {"measurement": "inhibition at 10 µM", "setting": "ROCK1", "value": 7, "unit": "%"}, {"measurement": "inhibition at 10 µM", "setting": "KIT(D816Y)", "value": -4.7, "unit": "%"}, {"measurement": "inhibition at 10 µM", "setting": "PKCθ", "value": -11.2, "unit": "%"}, {"measurement": "inhibition at 10 µM", "setting": "PLK3", "value": 3.4, "unit": "%"}, {"measurement": "inhibition at 10 µM", "setting": "ALK(G1202R)", "value": -5, "unit": "%"}, {"measurement": "inhibition at 10 µM", "setting": "MARK3", "value": -3.3, "unit": "%"}, {"measurement": "inhibition at 10 µM", "setting": "MAPKAPK3", "value": -15.5, "unit": "%"}, {"measurement": "inhibition at 10 µM", "setting": "CGK2", "value": -1.6, "unit": "%"}, {"measurement": "inhibition at 10 µM", "setting": "FGFR2", "value": 1.4, "unit": "%"}, {"measurement": "inhibition at 10 µM", "setting": "AKT1", "value": 0.7, "unit": "%"}, {"measurement": "inhibition at 10 µM", "setting": "CDK4/CycD3", "value": 18.1, "unit": "%"}, {"measurement": "inhibition at 10 µM", "setting": "EPHB3", "value": -4.8, "unit": "%"}, {"measurement": "inhibition at 10 µM", "setting": "RSK2", "value": 1.4, "unit": "%"}, {"measurement": "inhibition at 10 µM", "setting": "NDR2", "value": -1.2, "unit": "%"}, {"measurement": "inhibition at 10 µM", "setting": "SRPK2", "value": 3.1, "unit": "%"}, {"measurement": "inhibition at 10 µM", "setting": "FYN(isoform a)", "value": 1.8, "unit": "%"}, {"measurement": "inhibition at 10 µM", "setting": "MNK1", "value": -3.4, "unit": "%"}, {"measurement": "inhibition at 10 µM", "setting": "MAP3K3_Cascade", "value": 11.1, "unit": "%"}, {"measurement": "inhibition at 10 µM", "setting": "SYK", "value": -5.8, "unit": "%"}, {"measurement": "inhibition at 10 µM", "setting": "HIPK1", "value": 0.3, "unit": "%"}, {"measurement": "inhibition at 10 µM", "setting": "EPHA7", "value": 33.9, "unit": "%"}, {"measurement": "inhibition at 10 µM", "setting": "p70S6Kβ", "value": 0.5, "unit": "%"}, {"measurement": "inhibition at 10 µM", "setting": "EPHB1", "value": -0.4, "unit": "%"}, {"measurement": "inhibition at 10 µM", "setting": "PDGFRβ", "value": 2.5, "unit": "%"}, {"measurement": "inhibition at 10 µM", "setting": "p38γ", "value": 8.9, "unit": "%"}, {"measurement": "inhibition at 10 µM", "setting": "EEF2K", "value": 1.6, "unit": "%"}, {"measurement": "% Inhibition at 10 μM of the test compound", "setting": "COT_Cascade", "value": "−1.5", "unit": "%"}, {"measurement": "inhibition at 10 µM", "setting": "PDGFRα(D842V)", "value": -3.4, "unit": "%"}, {"measurement": "inhibition at 10 µM", "setting": "CK1γ2", "value": 3.1, "unit": "%"}, {"measurement": "inhibition at 10 µM", "setting": "ROS", "value": -0.2, "unit": "%"}]}]}
